# Laboratory results from patent US20230277591A1 (JULIUS-MAXIMILIANS-UNIVERSITÄT WÜRZBURG, priority 2017, published 2023).
# Entries after “also recorded” stand apart in the source; their conditions may differ.
# B1: BV10 mAb: anti-FLT3 monoclonal antibody BV10 (Biolegend) used in ADCC assay (antibody, V domains shown)
# VH: QVQLKQSGPGLVQPSQSLSITCTVSGFSLTNYGLHWVRQSPGKGLEWLGVIWSGGSTDYNAAFISRLSISKDNSKSQVFFKMNSLQADDTAIYYCARKGGIYYANHYYAMDYWGQGTSVTVSS
# VL: DIVMTQSPSSLSVSAGEKVTMSCKSSQSLLNSGNQKNYMAWYQQKPGQPPKLLIYGASTRESGVPDRFTGSGSGTDFTLTISSVQAEDLAVYYCQNDHSYPLTFGAGTKLELKR
# Columns and labels:
# MOLM-13 AML cells [1] = experiment: MOLM-13 xenograft model of AML in NSG mice; assay type: in vivo, mouse
# Protocol: (§1) All experiments were approved by the Institutional Animal Care and Use Committees of the participating institutions. NOD.Cg-Prkdc^scid Il2rg^tm1Wjl/SzJ (NSG) mice (female, 6-8 week old) were purchased from Charles River or bred in-house. Mice were inoculated with 1×10^6 ffluc_GFP^+ MOLM-13 AML cells by tail vein injection on day 0, and received a single dose of 5×10^6 T cells (in 200 µL of PBS/0.5% FCS) by tail vein injection on day 7. Crenolanib [15 mg/kg; 200 µL of 30% glycerol formal (Sigma Aldrich, Munich, Germany)] was administered intraperitoneally (i.p.) Monday-Friday for 3 consecutive weeks. AML progression/regression was assessed by serial bioluminescence imaging following i.p. administration of D-luciferin substrate (0.3 mg/g body weight) (Biosynth, Staad, Switzerland) using an IVIS Lumina imaging system (Perkin Elmer, Waltham, Massachusetts). Data was analyzed using Living Image software (Perkin Elmer).
# as §1, with “Crenolanib [15 mg/kg; 200 µL of 30% glycerol formal (Sigma Aldrich, Munich, Germany)] was administered intraperitoneally (i.p.) Monday-Friday for 3 consecutive weeks.” left out
# MOLM-13 AML cells [2] = experiment: Flow cytometric analysis of surface expression (FLT3, CD33, CD123) after FLT3 inhibitor treatment, MOLM-13; assay type: cell-based, human; details: for time to decrease of FLT3 expression to baseline levels after withdrawal of drug: MOLM-13, midostaurin: baseline or slightly below baseline
# Protocol: (§2) Cell surface expression of FLT3 (CD135) was analyzed using a conjugated mouse-anti-human-FLT3 mAb (clone 4G8, BD Pharmagin, BD Biosciences, Germany) and mouse IgG1 isotype control (BD Pharmagin). In brief, 1×10^6 cells were washed, resuspended in 100 µL PBS/0.5% fetal calf serum and stained with 5 µL of anti-FLT3 mAb or isotype for 30 minutes at 4° C.
# A complete medium change was performed every 7 days, MOLM-13 cells adjusted to 1×10^6/mL medium and 2 mL of this cell suspension plated per well in […] (Costar, Corning, NJ). After 2-3 weeks of culture with 10 nM midostaurine, MOLM-13 cells were exposed to exponentially increasing concentration of midostaurine for next 8-10 weeks to reach 50 nM midostaurin.
# MV4;11 AML cells [3] = experiment: Flow cytometric analysis of surface expression after FLT3 inhibitor treatment, MV4;11; assay type: cell-based, human
# Protocol: as §2
# THP-1 AML cells = experiment: Flow cytometric analysis of FLT3 expression after FLT3 inhibitor treatment, THP-1; assay type: cell-based, human; details: THP-1, wild-type FLT3
# Protocol: as §2
# [4] = system: K562 erythro-myeloid leukemia; experiment: Flow cytometric analysis of FLT3 expression after FLT3 inhibitor treatment, K562; assay type: cell-based, human; details: K562, wild-type FLT3
# Protocol: as §2
# [5] = system: JeKo-1 mantle cell lymphoma; experiment: Flow cytometric analysis of FLT3 expression after FLT3 inhibitor treatment, JeKo-1; assay type: cell-based, human; details: JeKo-1, wild-type FLT3
# Protocol: as §2
# MV4;11 AML cells [6] = experiment: Antibody-dependent cellular cytotoxicity (ADCC) assay; assay type: cell-based, human; details: mAb 5000 ng/mL, PBMC 50:1, 24 h
# Protocol: MV4;11 cells were plated at a concentration of 1×10^6/mL in 1 mL per well in 24-well plates (Costar, Corning, NJ).
# MV4;11 AML cells transduced with firefly luciferase (ffluc) were utilized for ADCC assays. MV4;11 AML cells were pre-treated with FLT3 inhibitors for 7 days or were left untreated. Target cells were co-incubated with healthy donor derived PBMCs at an effector-to-target ratio of 50:1 in triplicate wells of 96-well flat-bottom plates in the presence of solvent control, IgG1 isotype control (5000 ng/mL) or anti-FLT3 BV10 mAb (5000 ng/mL) (Biolegend, London, UK). ADCC was determined in a bioluminescence-based assay after 24 hours^40. Luciferin substrate was added to the co-culture and the decrease in luminescence signal was measured using a luminometer (Tecan, Männedorf, Switzerland). The percentage of viable cells was calculated using the following formula: % viability = bioluminescence signal in the presence of effector cells and BV10 mAb (with or without FLT3 inhibitor pre-treatment) × 100 / bioluminescence signal in the control condition.
# [7] = 4G8 CAR (Example 1), crenolanib 15 mg/kg i.p.
molecule,measurement,setting,value
CO[C@@H]1[C@H](N(C)C(=O)c2ccccc2)C[C@H]2O[C@]1(C)n1c3ccccc3c3c4c(c5c6ccccc6n2c5c31)C(=O)NC4 [midostaurin],mice with leukemia reduction (response rate),"MOLM-13 AML cells [1]; BV10 CAR (Example 3), midostaurin experiment, BL day 7 to day 11, n=4 per group",0%
same,"MFI of FLT3 higher, mouse with lowest FLT3 expression vs mouse without drug","MOLM-13 AML cells [1]; midostaurin 1 mg/kg i.p., bone marrow MOLM-13",30%
same,time to decrease of FLT3 expression to baseline levels after withdrawal of drug,MOLM-13 AML cells [2],≤ 2 days
same,effect of the drug per se on (viability and) function of FLT3 CAR-T cells,FLT3 CAR-T cells,not affected; also recorded: did not affect
CC1(COc2ccc3c(c2)ncn3-c2ccc3cccc(N4CCC(N)CC4)c3n2)COC1 [crenolanib],overall response rate,"MOLM-13 AML cells [1]; 4G8 CAR (Example 1), 5×10^6 T cells day 7, crenolanib 15 mg/kg i.p., n=8 per group",0%
same,"AML cells in peripheral blood, bone marrow and spleen at experiment endpoint",MOLM-13 AML cells [1]; [7],high degree of leukemia infiltration
same,antileukemia efficacy,MOLM-13 AML cells [1]; [7],only a minute antileukemia effect
same,FLT3 on MOLM-13 cells recovered from peripheral blood and bone marrow at experiment endpoint,MOLM-13 AML cells [1]; crenolanib monotherapy 15 mg/kg i.p.,uniformly and strongly upregulated
same,FLT3 surface protein (MFI) compared to MOLM-13native,"MOLM-13 AML cells [2]; 10 nM midostaurin 2-3 weeks, 10 nM crenolanib 5 days, 1 nM quizartinib 5 days, p < 0.05",significantly higher levels
same,time to decrease of FLT3 expression to baseline levels after withdrawal of drug,MOLM-13 AML cells [2],≤ 2 days
same,FLT3 expression upon re-exposure to the drug,MOLM-13 AML cells [2]; MOLM-13 after withdrawal,increased again
same,CD33 expression on MOLM-13,MOLM-13 AML cells [2]; inhibitor-treated vs native,not affected
same,CD123 expression on MOLM-13,MOLM-13 AML cells [2]; inhibitor-treated vs native,not affected
same,FLT3 expression upon exposure,MV4;11 AML cells [3]; MV4;11 (FLT3-ITD+/+),increase
same,CD33 expression on MV4;11,MV4;11 AML cells [3]; inhibitor-treated,not affected
same,CD123 expression on MV4;11,MV4;11 AML cells [3]; inhibitor-treated,not affected
same,increase in FLT3 expression upon exposure,THP-1 AML cells,did not occur
same,increase in FLT3 expression upon exposure,[4],did not occur
same,increase in FLT3 expression upon exposure,[5],did not occur
same,effect of the drug per se on (viability and) function of FLT3 CAR-T cells,FLT3 CAR-T cells,not affected; also recorded: did not affect
B1,MV4;11 cells eliminated (ADCC),"MV4;11 AML cells [6]; crenolanib-treated MV4;11 (10 nM, 7 days)",39%
same,MV4;11 cells eliminated (ADCC),"MV4;11 AML cells [6]; midostaurin-treated MV4;11 (50 nM, 7 days)",26%
same,MV4;11 cells eliminated (ADCC),"MV4;11 AML cells [6]; quizartinib-treated MV4;11 (1 nM, 7 days)",46%
same,MV4;11 cells eliminated (ADCC),MV4;11 AML cells [6]; without FLT3 inhibitor pre-treatment,13%
